Experimental data taken from patent publication US8461328B2, “Tricyclic heterocyclic compounds, compositions and methods of use thereof” (Genentech, Inc., priority 2010, dated 2013).

Key:
Type in all cases: biochemical
JAK1 = biological target: T1, JAK1 (Homo sapiens, UniProt P23458); test: JAK1 inhibition (Table 4); settings: read-out: JAK1 Ki
T1 construct: made in house; host or cells: SF9 insect cells (baculovirus)

JAK2 = biological target: T2, JAK2 (Homo sapiens, UniProt O60674); test: JAK2 inhibition (Table 4); settings: read-out: JAK2 Ki
T2 construct: made in house; host or cells: SF9 insect cells (baculovirus)
T2 sequence (O60674 812-1132): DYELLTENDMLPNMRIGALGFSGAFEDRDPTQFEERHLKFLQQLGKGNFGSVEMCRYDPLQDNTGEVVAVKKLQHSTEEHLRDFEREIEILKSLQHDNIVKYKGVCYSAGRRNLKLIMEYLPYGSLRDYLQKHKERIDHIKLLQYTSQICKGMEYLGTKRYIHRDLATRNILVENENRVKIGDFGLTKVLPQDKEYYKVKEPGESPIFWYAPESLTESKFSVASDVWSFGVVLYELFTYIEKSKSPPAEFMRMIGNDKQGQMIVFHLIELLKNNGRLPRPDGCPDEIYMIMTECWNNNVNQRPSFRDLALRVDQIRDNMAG

JAK3 = biological target: T3, JAK3 (Homo sapiens, UniProt P52333); test: JAK3 inhibition (Table 4); settings: read-out: JAK3 Ki
T3 construct: made in house; host or cells: SF9 insect cells (baculovirus)
T3 sequence (P52333 783-1124): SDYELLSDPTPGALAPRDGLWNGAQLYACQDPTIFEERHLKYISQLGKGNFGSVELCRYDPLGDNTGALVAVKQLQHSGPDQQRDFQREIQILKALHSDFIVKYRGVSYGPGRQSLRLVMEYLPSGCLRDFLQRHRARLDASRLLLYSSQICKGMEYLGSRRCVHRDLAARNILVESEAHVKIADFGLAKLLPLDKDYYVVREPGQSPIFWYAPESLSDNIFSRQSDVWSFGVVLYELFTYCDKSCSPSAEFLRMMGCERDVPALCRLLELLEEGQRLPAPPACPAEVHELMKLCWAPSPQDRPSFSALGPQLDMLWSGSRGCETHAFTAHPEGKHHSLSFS

TYK2 = biological target: T4, TYK2 (Homo sapiens, UniProt P29597); test: TYK2 inhibition (Table 4)
T4 construct: made in house; host or cells: SF9 insect cells (baculovirus)
T4 sequence (P29597 873-1187): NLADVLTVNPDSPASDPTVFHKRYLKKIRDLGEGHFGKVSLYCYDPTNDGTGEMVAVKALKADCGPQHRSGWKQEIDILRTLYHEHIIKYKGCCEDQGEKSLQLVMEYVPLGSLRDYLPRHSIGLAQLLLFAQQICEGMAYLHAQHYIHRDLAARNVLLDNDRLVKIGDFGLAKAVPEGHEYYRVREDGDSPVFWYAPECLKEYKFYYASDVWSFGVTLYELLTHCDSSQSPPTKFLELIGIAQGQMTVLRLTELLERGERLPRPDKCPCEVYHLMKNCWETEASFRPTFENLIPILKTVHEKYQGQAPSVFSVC

T1 sequence (P23458 852-1154): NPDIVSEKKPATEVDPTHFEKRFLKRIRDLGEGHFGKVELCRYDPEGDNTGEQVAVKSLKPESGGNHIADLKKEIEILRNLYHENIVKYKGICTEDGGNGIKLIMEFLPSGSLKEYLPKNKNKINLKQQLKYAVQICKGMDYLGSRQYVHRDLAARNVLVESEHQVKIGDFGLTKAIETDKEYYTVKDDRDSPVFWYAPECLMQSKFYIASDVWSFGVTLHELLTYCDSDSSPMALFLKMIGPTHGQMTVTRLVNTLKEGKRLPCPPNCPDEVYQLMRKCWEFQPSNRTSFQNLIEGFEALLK

Row | SMILES | Ki (JAK1) | Ki (JAK2) | Ki (JAK3) | Ki (TYK2)
1 | OCCc1nc2cnc3[nH]ccc3c2n1[C@@H]1CCCN(Cc2ccccc2)C1 [Example 15, 2-[1-((R)-1-Benzyl-piperidin-3-yl)-1,6-dihydro-1,2,3,5,6-tetraaza-as-indacen-2-yl]ethanol] | 102 nM | 86.5 nM | 769 nM | 443 nM
2 | OCCc1nc2cnc3[nH]ccc3c2n1[C@@H]1CCCNC1 [Example 16, 2-((R)-1-Piperidin-3-yl-1,6-dihydro-1,2,3,5,6-tetraaza-as-indacen-2-yl)ethanol] | 219 nM | 680 nM | 1270 nM | 758 nM
3 | N#CCC(=O)N1CCC[C@@H](n2c(CCO)nc3cnc4[nH]ccc4c32)C1 [Example 17, 3-{(R)-3-[2-(2-Hydroxy-ethyl)-6H-1,2,3,5,6-tetraaza-as-indacen-1-yl]-piperidin-1-yl}-3-oxopropionitrile] | 4.04 nM | 17.1 nM | 79.1 nM | 29.8 nM
4 | c1ccc(CN2CCC[C@@H](n3nnc4cnc5[nH]ccc5c43)C2)cc1 [Example 18, 1-((R)-1-Benzyl-piperidin-3-yl)-1,6-dihydro-1,2,3,5,6-pentaaza-as-indacene] | 24.6 nM | 40.1 nM | 323 nM | 273 nM
5 | N#CCC(=O)N1CCC[C@@H](n2nnc3cnc4[nH]ccc4c32)C1 [Example 19, 3-Oxo-3-[(R)-3-(6H-1,2,3,5,6-pentaaza-as-indacen-1-yl)-piperidin-1-yl]propionitrile] | 1.49 nM | 3.72 nM | 24.5 nM | 20.3 nM
6 | CNC(=O)Cc1nc2cnc3[nH]ccc3c2n1C1CCN(Cc2ccccc2)CC1 [Example 21, 2-[1-(1-Benzyl-piperidin-4-yl)-1,6-dihydro-1,2,3,5,6-tetraaza-as-indacen-2-yl]-N-methyl acetamide] | 9.93 nM | 38.5 nM | 37.6 nM | 627 nM
7 | OCc1nc2cnc3[nH]ccc3c2n1C1CCN(Cc2ccccc2)CC1 [Example 22, [1-(1-Benzyl-piperidin-4-yl)-1,6-dihydro-1,2,3,5,6-tetraaza-as-indacen-2-yl]methanol] | 1.73 nM | 6.44 nM | 10.8 nM | 69.9 nM
8 | O=C(Cc1nc2cnc3[nH]ccc3c2n1C1CCN(Cc2ccccc2)CC1)N1CCOCC1 [Example 23, 2-[1-(1-Benzyl-piperidin-4-yl)-1,6-dihydro-1,2,3,5,6-tetraaza-as-indacen-2-yl]-1-morpholin-4-yl-ethanone] | 6.22 nM | 62.7 nM | 9.98 nM | 616 nM
9 | O=C1CCCN1Cc1nc2cnc3[nH]ccc3c2n1C1CCN(Cc2ccccc2)CC1 [Example 24, 1-[1-(1-Benzyl-piperidin-4-yl)-1,6-dihydro-1,2,3,5,6-tetraaza-as-indacen-2-ylmethyl]-pyrrolidin-2-one] | 10.4 nM | 68.6 nM | 29.2 nM | 735 nM
10 | CC(=O)N1CCC[C@@H](n2cnc3cnc4[nH]ccc4c32)C1 [Example 30, 1-[(R)-3-(6H-1,3,5,6-Tetraaza-as-indacen-1-yl)-piperidin-1-yl]ethanone] | 29.2 nM | 42.2 nM | 139 nM | 141 nM
11 | O=C(c1cccnc1)N1CCC[C@@H](n2cnc3cnc4[nH]ccc4c32)C1 [Example 31, Pyridin-3-yl-[(R)-3-(6H-1,3,5,6-tetraaza-as-indacen-1-yl)-piperidin-1-yl]methanone] | 13.2 nM | 25.9 nM | 419 nM | 159 nM
12 | CN(C)CC(=O)N1CCC[C@@H](n2cnc3cnc4[nH]ccc4c32)C1 [Example 32, 2-Dimethylamino-1-[(R)-3-(6H-1,3,5,6-tetraaza-as-indacen-1-yl)-piperidin-1-yl]ethanone] | 181 nM | 568 nM | 1820 nM | 3180 nM
13 | O=C(c1cccnc1)N1CCC(n2cnc3cnc4[nH]ccc4c32)CC1 [Example 34, Pyridin-3-yl-[4-(6H-1,3,5,6-tetraaza-as-indacen-1-yl)-piperidin-1-yl]methanone] | 31.5 nM | 63.1 nM | 1070 nM | 423 nM
14 | N#CCC(=O)N1CC[C@@H](n2cnc3cnc4[nH]ccc4c32)C1 [Example 37, 3-Oxo-3-[(R)-3-(6H-1,3,5,6-tetraaza-as-indacen-1-yl)-pyrrolidin-1-yl]propionitrile] | 11.3 nM | 44.2 nM | 144 nM | 198 nM
15 | N#CCC(=O)N1CC(n2cnc3cnc4[nH]ccc4c32)C1 [Example 38, 3-Oxo-3-[3-(6H-1,3,5,6-tetraaza-as-indacen-1-yl)-azetidin-1-yl]propionitrile] | 412 nM | 315 nM | 713 nM | 1970 nM
16 | c1cncc(CN2CCC[C@@H](n3cnc4cnc5[nH]ccc5c43)C2)c1 [Example 39, 1-((R)-1-Pyridin-3-ylmethyl-piperidin-3-yl)-1,6-dihydro-1,3,5,6-tetraaza-as-indacene] | 35.9 nM | 102 nM | 182 nM | 330 nM
17 | N#Cc1ccc(CN2CCC[C@@H](n3cnc4cnc5[nH]ccc5c43)C2)cc1 [Example 40, 4-[(R)-3-(6H-1,3,5,6-Tetraaza-as-indacen-1-yl)-piperidin-1-ylmethyl]benzonitrile] | 6.35 nM | 17.8 nM | 66.9 nM | 107 nM

Continued, values first:

Row | Ki (JAK1) | Ki (JAK2) | Ki (JAK3) | Ki (TYK2) | SMILES
18 | 34.4 nM | 48.9 nM | 153 nM | 159 nM | N#Cc1ccccc1CN1CCC[C@@H](n2cnc3cnc4[nH]ccc4c32)C1 [Example 41, 2-[(R)-3-(6H-1,3,5,6-Tetraaza-as-indacen-1-yl)-piperidin-1-ylmethyl]benzonitrile]
19 | 14.9 nM | 41 nM | 93 nM | 122 nM | c1ncc(CN2CCC[C@@H](n3cnc4cnc5[nH]ccc5c43)C2)cn1 [Example 42, 1-((R)-1-Pyrimidin-5-ylmethyl-piperidin-3-yl)-1,6-dihydro-1,3,5,6-tetraaza-as-indacene]
20 | 43.1 nM | 72.9 nM | 177 nM | 204 nM | c1coc(CN2CCC[C@@H](n3cnc4cnc5[nH]ccc5c43)C2)n1 [Example 43, 1-((R)-1-Oxazol-2-ylmethyl-piperidin-3-yl)-1,6-dihydro-1,3,5,6-tetraaza-as-indacene]
21 | 105 nM | 121 nM | 241 nM | 423 nM | Cn1ccnc1CN1CCC[C@@H](n2cnc3cnc4[nH]ccc4c32)C1 [Example 44, 1-[(R)-1-(1-Methyl-1H-imidazol-2-ylmethyl)-piperidin-3-yl]-1,6-dihdyro-1,3,5,6-tetraaza-as-indacene]
22 | 7.58 nM | 18 nM | 27.5 nM | 129 nM | N#Cc1cccc(CN2CCC[C@@H](n3cnc4cnc5[nH]ccc5c43)C2)c1 [Example 45, 3-[(R)-3-(6H-1,3,5,6-Tetraaza-as-indacen-1-yl)-piperidin-1-ylmethyl]benzonitrile]
23 | 72.4 nM | 160 nM | 414 nM | 913 nM | COc1ccc(CN2CCC[C@@H](n3cnc4cnc5[nH]ccc5c43)C2)cc1 [Example 46, 1-[(R)-1-(4-Methoxy-benzyl)-piperidin-3-yl]-1,6-dihydro-1,3,5,6-tetraaza-as-indacene]
24 | 13.1 nM | 28.9 nM | 52.2 nM | 101 nM | Fc1cccc(CN2CCC[C@@H](n3cnc4cnc5[nH]ccc5c43)C2)c1 [Example 47, 1-[(R)-1-(3-Fluoro-benzyl)-piperidin-3-yl]-1,6-dihydro-1,3,5,6-tetraaza-as-indacene]
25 | 1.3 nM | 2.67 nM | 8.57 nM | 30.9 nM | N#Cc1ccc(CN2CCC(n3cnc4cnc5[nH]ccc5c43)CC2)cc1 [Example 48, 4-[4-(6H-1,3,5,6-Tetraaza-as-indacen-1-yl)-piperidin-1-ylmethyl]benzonitrile]
26 | 0.3 nM | 0.98 nM | 26.5 nM | 35.7 nM | N#Cc1cccc(CN2CCC(n3cnc4cnc5[nH]ccc5c43)CC2)c1 [Example 49, 3-[4-(6H-1,3,5,6-Tetraaza-as-indacen-1-yl)-piperidin-1-ylmethyl]benzonitrile]
27 | 2.48 nM | 4.84 nM | 18 nM | 88.8 nM | c1cncc(CN2CCC(n3cnc4cnc5[nH]ccc5c43)CC2)c1 [Example 50, 1-(1-Pyridin-3-ylmethyl-piperidin-4-yl)-1,6-dihydro-1,3,5,6-tetraaza-as-indacene]
28 | 7.68 nM | 6.69 nM | 137 nM | 76.6 nM | CC(c1ccccc1)N1CCC(n2cnc3cnc4[nH]ccc4c32)CC1 (stereo not drawn) [Example 51, 1-[1-(1-Phenyl-ethyl)-piperidin-4-yl]-1,6-dihydro-1,3,5,6-tetraaza-as-indacene]
29 | 3.84 nM | 9.97 nM | 337 nM | 64.7 nM | N#Cc1ccc(S(=O)(=O)N2CCC(n3cnc4cnc5[nH]ccc5c43)CC2)cc1 [Example 56, 4-[4-(6H-1,3,5,6-Tetraaza-as-indacen-1-yl)-piperidine-1-sulfonyl]benzonitrile]
30 | 5.21 nM | 9.05 nM | 12 nM | 45.8 nM | CS(=O)(=O)CCN1CCC[C@@H](n2cnc3cnc4[nH]ccc4c32)C1 [Example 57, 1-[(R)-1-(2-Methanesulfonyl-ethyl)-piperidin-3-yl]-1,6-dihydro-1,3,5,6-tetraaza-as-indacene]
